From patent publication US20230373934A1, “ANDROGEN RECEPTOR MODULATORS AND METHODS FOR THEIR USE” (ESSA Pharma, Inc., priority 2022, published 2023)

What was measured:
androgen receptor (AR) [1] = target: T1, androgen receptor (AR) (Homo sapiens, UniProt P10275); experiment: Androgen-induced PSA-luciferase assay, Luciferase Assay B (cells stably expressing ARR2PB or PSA-firefly luciferase reporter, 384-well); format: cell-based; conditions: Luciferase Assay B (Compounds A186-A219 and A221-A245); stable luciferase reporter cells, 1 h pretreatment, R1881 24 h, serum-free; read-out: PSA-Luc IC50 Range
T1 sequence (P10275 1-920 T878A): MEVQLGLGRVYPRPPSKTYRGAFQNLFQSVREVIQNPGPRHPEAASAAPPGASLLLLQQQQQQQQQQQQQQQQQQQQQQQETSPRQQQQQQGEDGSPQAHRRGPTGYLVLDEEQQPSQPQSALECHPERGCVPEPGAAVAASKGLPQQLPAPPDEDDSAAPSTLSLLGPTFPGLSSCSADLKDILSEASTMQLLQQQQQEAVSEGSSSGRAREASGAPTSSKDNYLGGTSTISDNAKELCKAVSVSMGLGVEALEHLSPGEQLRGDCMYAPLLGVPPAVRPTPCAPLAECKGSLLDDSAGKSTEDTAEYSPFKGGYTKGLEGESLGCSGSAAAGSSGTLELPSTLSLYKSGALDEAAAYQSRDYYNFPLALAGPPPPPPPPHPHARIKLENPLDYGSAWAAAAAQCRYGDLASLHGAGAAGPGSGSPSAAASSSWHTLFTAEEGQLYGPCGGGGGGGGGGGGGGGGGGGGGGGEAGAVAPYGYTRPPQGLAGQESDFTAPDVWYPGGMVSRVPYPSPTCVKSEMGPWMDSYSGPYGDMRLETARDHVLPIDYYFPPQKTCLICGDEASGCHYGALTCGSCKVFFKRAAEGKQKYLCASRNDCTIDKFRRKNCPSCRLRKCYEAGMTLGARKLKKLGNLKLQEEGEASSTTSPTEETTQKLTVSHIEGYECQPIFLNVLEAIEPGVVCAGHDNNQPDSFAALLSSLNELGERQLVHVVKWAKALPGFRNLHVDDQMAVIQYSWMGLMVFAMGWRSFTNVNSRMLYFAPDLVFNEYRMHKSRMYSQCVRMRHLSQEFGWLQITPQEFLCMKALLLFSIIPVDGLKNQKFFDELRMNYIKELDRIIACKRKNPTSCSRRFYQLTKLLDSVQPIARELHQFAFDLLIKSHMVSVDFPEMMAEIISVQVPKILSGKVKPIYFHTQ
Experimental: Luciferase Assay B: Cells stably expressing probasin promoter (ARR2PB) or human prostate-specific antigen (PSA)-firefly luciferase reporter were plated in poly-D-lysine-coated 384-well plates. 48 h after plating, cells were pretreated with vehicle or compounds for 1 h before adding R1881 under serum-free and phenol red-free conditions and then further incubated for 24 h. R1881 was added only for LNCaP cells. Firefly luciferase activities were determined by EnVision plate reader (Perkinemer) using the Steady-Glo Luciferase Reporter Assay System (Promega). Values were normalized to protein content. GraphPad Prism graphing software was used to calculate IC50 values. Luciferase Assay B was run for Compounds A186-A219 and A221-A245 in Table 2.
Statistical analyses were performed using GraphPad Prism (Version 6.01 for Windows; La Jolla, CA, USA). Comparisons between treatment and control groups were compared using Two-Way ANOVA with post-hoc Dunnett's and Tukey's tests. Differences were considered statistically significant at P values less than 0.05.

androgen receptor (AR) [2] = target: T2, androgen receptor (AR) (Homo sapiens, UniProt P10275, T878A); experiment: Androgen-induced PSA-luciferase assay, Luciferase Assay A (LNCaP transiently transfected with PSA (6.1 kb)-luciferase reporter); format: cell-based; conditions: LNCaP cells, 1 h pretreatment, R1881 (1 nM) 24 h, read-out: PSA-Luc IC50 Range
T2 construct: endogenous in cells; host or cells: LNCaP
T2 sequence (P10275 1-920 T878A): T1 sequence (P10275 1-920 T878A)
Procedure, shortened: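 LNCaP cells transfected 24 h with PSA (6.1 kb)-luciferase reporter, pretreated 1 h with compound, then stimulated 24 h with R1881 (1 nM). Firefly luminescence in lysates normalized to protein content; IC50 from activity relative to R1881-induced vehicle control.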

| Compound | IC50 (androgen receptor (AR) [1]) [nM] | IC50 (androgen receptor (AR) [2]) [nM] |
| --- | --- | --- |
| CS(=O)(=O)Nc1nccc(COc2ccc(N(CC(F)(F)F)c3cc(Cl)c(N4CCOCC4)c(C#N)c3)cc2)n1 [Compound A223] | < 500 |  |
| CS(=O)(=O)NC12CC(COc3ccc(N(CC(F)(F)F)c4cnc(NC5CC5)c(C#N)c4)cc3)(C1)C2 [Compound A235] | > 2000 |  |
| CS(=O)(=O)NC12CC(COc3ccc(N(CC(F)(F)F)c4cc(Cl)c(OC5CC5)c(C#N)c4)cc3)(C1)C2 [Compound A236, N-(3-((4-((3-chloro-5-cyano-4-cyclopropoxyphenyl)(2,2,2-trifluoroethyl)amino)phenoxy)methyl)bicyclo[1.1.1]pentan-1-yl)methanesulfonamide] | < 500 |  |
| CC(C)(c1ccc(OC[C@H]2C[C@H](CNS(C)(=O)=O)C2)cc1)c1cc(Cl)c(OCCCl)c(C#N)c1 [Compound A64] |  | 500 to 2000 |
| CC(C)(c1ccc(OCc2ccnc(NS(C)(=O)=O)n2)cc1)c1cc(Cl)c(OCCN2CCNCC2)c(C#N)c1 [Compound A184] |  | > 2000 |
| Cn1ccc(S(=O)(=O)Nc2nccc(COc3ccc(C(C)(C)c4cc(Cl)c(OCCCl)c(C#N)c4)cc3)n2)n1 [Compound A105] |  | 500 to 2000 |
| CC(C)(c1ccc(OC[C@H]2C[C@@H](CNS(C)(=O)=O)C2)cc1)c1cc(Cl)c(OCCCl)c(C#N)c1 [Compound A74] |  | 500 to 2000 |
| CC(C)(c1ccc(N2CCN(CCNS(C)(=O)=O)CC2)cc1)c1cc(Cl)c(OCCCl)c(C#N)c1 [Compound A13] |  | > 2000 |
| CC(C)(c1ccc(CN2CCC(NS(C)(=O)=O)C(F)(F)C2)cc1)c1cc(Cl)c(OCCCl)c(C#N)c1 (centres unmarked) [Compound A34] |  | > 2000 |
| CC(C)(c1ccc(OCc2ccnc(NS(C)(=O)=O)n2)cc1)c1cc(Cl)c(OCCNS(C)(=O)=O)c(C#N)c1 [Compound A183] |  | > 2000 |
| CC(C)(c1ccc(OCc2ccnc(NS(C)(=O)=O)n2)cc1)c1cc(Cl)c(OC2COC2)c(C#N)c1 [Compound A56] |  | > 2000 |
| CC(C)(c1ccc(Oc2ccnc(N3CC(NS(C)(=O)=O)C3)n2)cc1)c1cc(Cl)c(OCCCl)c(C#N)c1 [Compound A87] |  | 500 to 2000 |
| CC(C)(c1ccc(OCc2ccnc(NS(C)(=O)=O)n2)cc1)c1cc(Cl)c(N2CC3CC(C2)O3)c(C#N)c1 [Compound A126] |  | > 2000 |
| C=COc1c(Cl)cc(C(C)(C)c2ccc(COc3ccnc(NS(C)(=O)=O)n3)cc2)cc1C#N [Compound A102] |  | > 2000 |
| CC(C)(c1ccc(-c2ccnc(N3CC(NS(C)(=O)=O)C3)n2)cc1)c1cc(Cl)c(OCCCl)c(C#N)c1 [Compound A40] |  | > 2000 |
| CC(C)(c1ccc(-c2cnc(NC3CN(S(C)(=O)=O)C3)nc2)cc1)c1cc(Cl)c(OCCCl)c(C#N)c1 [Compound A76] |  | 500 to 2000 |
| CS(=O)(=O)Nc1nccc(COc2ccc(Cc3cc(Cl)c(OCCCl)c(C#N)c3)cc2)n1 [Compound A185] |  | > 2000 |
| CC(C)(c1cc(Cl)c(OCCCl)c(C#N)c1)c1ccc(OCc2ccnc(NS(C)(=O)=O)n2)c(CO)c1 [Compound A119] |  | > 2000 |
| CC(C)(c1ccc(OCc2ccnc(NS(C)(=O)=O)n2)cc1)c1cc(Cl)c(N2CCN(CC(F)(F)F)CC2)c(C#N)c1 [Compound A134] |  | 500 to 2000 |
| CN(c1ccc(OCc2ccnc(NS(C)(=O)=O)n2)cc1)c1cc(Cl)c(OCCCl)c(C#N)c1 [Compound A162] |  | 500 to 2000 |
| CC(C)(c1ccc(OCc2ccnc(NS(C)(=O)=O)n2)cc1)c1cc(Cl)c(OCc2cnccn2)c(C#N)c1 [Compound A181] |  | > 2000 |
| CC(C)(c1ccc(N2CCOC3(CCN(S(C)(=O)=O)CC3)C2)cc1)c1cc(Cl)c(OCCCl)c(C#N)c1 [Compound A32] |  | < 500 |
| CC(C)(c1ccc(CN2CCC(NS(C)(=O)=O)CC2)cc1)c1cc(Cl)c(OCCCl)c(C#N)c1 [Compound A8] |  | > 2000 |
| CC(C)(C)OC(=O)N1CCN(Cc2cc(C(C)(C)c3cc(Cl)c(OCCCl)c(C#N)c3)ccc2OCc2ccnc(NS(C)(=O)=O)n2)CC1 [Compound A112] |  | 500 to 2000 |
| CS(=O)(=O)NC1CN(CCc2ccc(Oc3cc(Cl)c(OCCCl)c(C#N)c3)cc2)C1 [Compound A7] |  | > 2000 |

Continued, values first:

| IC50 (androgen receptor (AR) [1]) [nM] | IC50 (androgen receptor (AR) [2]) [nM] | Compound |
| --- | --- | --- |
| > 2000 |  | CS(=O)(=O)Nc1cc2n(n1)CCN(c1ccc(Oc3cc(Cl)c(OC4CC4)c(C#N)c3)cc1)C2 [Compound A231] |
| 500 to 2000 |  | N#Cc1cc(Oc2ccc(-c3ccc4nc(NC5CCS(=O)(=O)CC5)cnc4c3)cc2)cc(Cl)c1OC1CC1 [Compound A215] |
| < 500 |  | CC(=O)N1CCN(c2nccc(COc3ccc(N(CC(F)(F)F)c4cc(Cl)c(OC5CC5)c(C#N)c4)cc3)n2)CC1 [Compound A245] |
| > 2000 |  | CNc1cnc2cc(-c3ccc(Oc4cc(Cl)c(OC5CC5)c(C#N)c4)cc3)ccc2n1 [Compound A200] |
| 500 to 2000 |  | CC(=O)N1CCN(c2cnc3cc(-c4ccc(Oc5cc(Cl)c(OC6CC6)c(C#N)c5)cc4)ccc3n2)CC1 [Compound A242] |
| < 500 |  | CS(=O)(=O)NCc1nccc(COc2ccc(N(CC(F)(F)F)c3cc(Cl)c(OC4CC4)c(C#N)c3)cc2)n1 [Compound A221] |
| > 2000 |  | N#Cc1cc(Oc2ccc(-c3ccc4nc(NC5CS(=O)(=O)C5)cnc4c3)cc2)cc(Cl)c1OC1CC1 [Compound A216] |
| 500 to 2000 |  | N#Cc1cc(Oc2ccc(-c3ccc4nc(N5CCS(=O)(=O)CC5)cnc4c3)cc2)cc(Cl)c1OC1CC1 [Compound A206] |
| 500 to 2000 |  | CS(=O)(=O)Nc1cncc(N2CC(c3ccc(Oc4cc(Cl)c(OC5CC5)c(C#N)c4)cc3)C2)n1 [Compound A232] |
| > 2000 |  | N#Cc1cc(Oc2ccc(-c3ccc4nc(N5CCOCC5)cnc4c3)cc2)cc(Cl)c1OC1CC1 [Compound A204] |
| 500 to 2000 |  | CS(=O)(=O)Nc1cnc2ccc(-c3ccc(Oc4cc(Cl)c(OC5CC5)c(C#N)c4)cc3)cc2n1 [Compound A193] |
| > 2000 |  | N#Cc1cc(Oc2ccc(-c3ccc4nc(N5CCNCC5)cnc4c3)cc2)cc(Cl)c1OC1CC1 [Compound A240] |
|  | > 2000 | CS(=O)(=O)Nc1nccc2nc(-c3ccc(Oc4cc(Cl)c(OCCCl)c(C#N)c4)cc3)ccc12 [Compound A66] |
|  | > 2000 | CS(=O)(=O)NC1CCN(CCc2ccc(Oc3cc(Cl)c(OCCCl)c(C#N)c3)cc2)CC1 [Compound A30] |
|  | < 500 | CC(C)(c1ccc(-c2ccc(N3CCC(NS(C)(=O)=O)C3)nc2)cc1)c1cc(Cl)c(OCCCl)c(C#N)c1 (centres unmarked) [Compound A54] |
|  | 500 to 2000 | CC(C)(c1ccc(OC2CC3(C2)CN(S(C)(=O)=O)C3)cc1)c1cc(Cl)c(OC2CC2)c(C#N)c1 [Compound A141] |
|  | 500 to 2000 | CC(C)(c1ccc(OCc2ccnc(NS(C)(=O)=O)n2)cc1)c1cc(Cl)c(OCC2CCC2)c(C#N)c1 [Compound A146] |
|  | 500 to 2000 | CS(=O)(=O)NC12CC(n3cc(-c4ccc(Oc5cc(Cl)c(OCCCl)c(C#N)c5)cc4)cn3)(C1)C2 [Compound A99] |
|  | 500 to 2000 | CS(=O)(=O)Nc1cnc2cc(-c3ccc(Oc4cc(F)c(OCCCl)c(C#N)c4)cc3)ccc2n1 [Compound A155] |
|  | > 2000 | CS(=O)(=O)Nc1nccc2cc(-c3ccc(Oc4cc(Cl)c(OCCCl)c(C#N)c4)cc3)ccc12 [Compound A65] |
|  | < 500 | CC(C)(c1ccc(-c2ccc(N3CC(CNS(C)(=O)=O)C3)nc2)cc1)c1cc(Cl)c(OCCCl)c(C#N)c1 [Compound A55] |
|  | 500 to 2000 | CC(C)(c1ccc(OCc2ccnc(NS(C)(=O)=O)n2)cc1)c1cc(Cl)c(OC2CC2)c(C#N)c1 [Compound A62] |
|  | < 500 | CC(C)(c1ccc(-c2ccc(NC3CN(S(C)(=O)=O)C3)nc2)cc1)c1cc(Cl)c(OCCCl)c(C#N)c1 [Compound A53] |
|  | > 2000 | CS(=O)(=O)Nc1nccc(COc2ccc(Oc3cc(Cl)c(OCCCl)c(C#N)c3)cc2)n1 [Compound A122] |
|  | > 2000 | CS(=O)(=O)N[C@H]1C[C@H](n2cc(-c3ccc(Oc4cc(Cl)c(OCCCl)c(C#N)c4)cc3)cn2)C1 [Compound A79] |
